From ChEMBL document CHEMBL1135889, “Novel 4-anilinoquinazolines with C-7 basic side chains: design and structure activity relationship of a series of potent, orally active, VEGF receptor tyrosine kinase inhibitors” (J Med Chem, 2002)

Experiments:
[1] = Pharmacokinetic parameter bioavailability in rat was reported after oral administration of 50 mg/Kg measured on free base; assay type: ADME, organism-based; settings: in vivo
[2] = Plasma levels following administration of 50 mg/Kg perorally and concentration of compound in plasma 24 hr after administration; assay type: ADME, cell-free; settings: po, read-out: Plasma level
[3] = solubility was determined using free base at pH 7.4; assay type: physicochemical; settings: buffer
[4] = pKa value at a pH of […].value ranges from […]-[…].; assay type: physicochemical; settings: pH 7.4
HUVEC = assay: Inhibition of basal unstimulated growth of human endothelial cell; assay type: functional, cell-based
Mus musculus [5] = assay: Inhibition of Established Calu-6 tumor xenografts implanted subcutaneously in athymic mice measured after 21 days of dosing of […] mg/kg perorally.; assay type: functional; settings: Calu-6, 504 h, route oral
Mus musculus [6] = assay: Inhibition of Established Calu-6 tumor xenografts implanted subcutaneously in athymic mice measured after 21 days of dosing of 50 mg/kg perorally.; assay type: functional; settings: Calu-6, 504 h, route oral
Mus musculus [7] = assay: Inhibition of Established Calu-6 tumor xenografts implanted subcutaneously in athymic mice measured after 21 days of dosing of 12.5 mg/kg perorally.; assay type: functional; settings: Calu-6, 504 h, route oral
[8] = Plasma levels following administration of 50 mg/Kg perorally and concentration in plasma 6 hr after administration; assay type: ADME, cell-free; settings: po, read-out: Plasma level
Mus musculus [9] = assay: Inhibition of Calu-6 tumor xenografts implanted subcutaneously in athymic mice measured after 21 days of dosing of 100 mg/kg perorally.; assay type: functional; settings: Calu-6, 504 h, route oral
physchem = settings: octanol/water, pH 7.4
[10] = Pharmacokinetic parameter half-life in dog was reported after intravenous administration of 5 mg/Kg measured on free base; settings: in vivo
[11] = Pharmacokinetic parameter bioavailability in dog was reported after oral administration of 25 mg/Kg measured on free base; settings: in vivo
[12] = Pharmacokinetic parameter half-life in rat was reported after intravenous administration of 5 mg/Kg measured on free base; settings: in vivo

Question: For `COc1cc2c(Nc3ccc(Br)cc3F)ncnc2cc1OCC1CCN(C)CC1.Cl`, which bioavailability [1] is on record?
Answer: The bioavailability was over 50%.

Question: What about the concentration at 24 h [2] of the same compound?
Answer: The concentration at 24 h was 3 µM.

Question: What about the solubility [3] of the same compound?
Answer: The solubility was 330 µM.

Question: And the pKa [4]?
Answer: Its pKa is 9.4.

Question: What about the IC50 (HUVEC) of the same compound?
Answer: Its IC50 is over 3000 nM.

Question: And the inhibition in vivo at 25 mg/kg (Mus musculus [5])?
Answer: Its inhibition in vivo at 25 mg/kg is 51%.

Question: What about the inhibition in vivo at 50 mg/kg (Mus musculus [6]) of the same compound?
Answer: Its inhibition in vivo at 50 mg/kg is 67%.

Question: What about the inhibition in vivo at 12.5 mg/kg (Mus musculus [7]) of the same compound?
Answer: Its inhibition in vivo at 12.5 mg/kg is 36%.

Question: What about the concentration at 6 h [8] of the same compound?
Answer: The concentration at 6 h was 5.5 µM.

Question: And the inhibition in vivo at 100 mg/kg (Mus musculus [9])?
Answer: The inhibition in vivo at 100 mg/kg was 79%.

Question: What about the logD (physchem) of the same compound?
Answer: The logD was 2.6.

Question: And the half-life [10]?
Answer: The half-life was 8.3 h.

Question: What about the bioavailability [11] of the same compound?
Answer: The bioavailability was over 50%.

Question: What about the half-life [12] of the same compound?
Answer: The half-life was 15 h.
